# Data: patent US8609671B2, “Method of inhibiting hepatic fibrosis as a result of liver replacement or repair using A2B adenosine receptor antagonists” (Gilead Sciences, Inc., priority 2006, dated 2013)
# Entries after “also recorded” stand apart in the source; their conditions may differ.
# Columns and labels:
# [1] = biological target: T1, Human A2A adenosine receptor (Homo sapiens, UniProt P29274); details: read-out: affinity for A2A receptor (Ki); cited from earlier work
# T1 construct: expressed in transfected cells; host or cells: HEK-293 (HEK-A2A), membrane preparation
# T1 sequence (P29274 whole entry): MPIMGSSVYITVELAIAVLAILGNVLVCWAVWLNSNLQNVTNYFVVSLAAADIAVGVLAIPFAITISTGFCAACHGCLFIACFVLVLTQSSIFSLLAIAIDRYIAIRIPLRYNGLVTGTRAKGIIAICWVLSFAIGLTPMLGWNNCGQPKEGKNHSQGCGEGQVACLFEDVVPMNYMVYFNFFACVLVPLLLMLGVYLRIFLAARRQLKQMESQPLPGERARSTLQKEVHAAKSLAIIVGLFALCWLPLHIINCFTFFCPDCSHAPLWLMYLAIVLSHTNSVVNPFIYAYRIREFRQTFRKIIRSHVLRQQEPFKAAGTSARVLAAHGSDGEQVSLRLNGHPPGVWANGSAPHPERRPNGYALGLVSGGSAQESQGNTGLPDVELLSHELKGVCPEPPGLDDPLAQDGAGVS
# HHSCs [2] = assay: IL-6 release by HHSCs (ELISA); assay type: cell-based, human; parameters: maximal increase of IL-6 release over the basal level: concentration or dose not given beside the values
# Experimental: (§1) Primary cultured normal human hepatic stellate Cells (HHSCs) were obtained from ScienCell Research Laboratories (San Diego, Calif.) and cultured using stellate cell growth medium (ScienCell Research Laboratories). HHSCs were routinely grown in a humidified incubator with 5% CO2 at 37° C. and reseeded when they reached about 80-90% confluency. Each re-seeding is called a passage. Cells from passages 2 to 5 were used in the following studies.
# (§2) HHSCs were seeded into 12-well tissue culture plates at a density of 1×10^5 cells/well in stellate cell growth medium and allowed to adhere overnight and reach ˜90% confluency. Cells were washed twice in HEPES buffered saline, and cultured in DMEM containing various agonists or antagonists of AdoRs for 1 or 24 h.
# (§3) The concentration of IL-6 in the cell medium was determined using ELISA kits obtained from Biosource (Camarillo, Calif.) according to the manufacturer's instructions. The minimal detection levels of IL-6 with these kits were 2 pg/ml. The concentration of soluble collagen in the cell medium was measured using the Sircol collagen assay (Biocolor Ltd., Belfast N. Ireland) according to manufacture's instructions. The activity of AST in mouse plasma was determined using the Infinity™ AST assay (Thermo Electron Corporation, Waltham, Mass.)
# HHSCs [3] = assay: Collagen production by HHSCs (Sircol collagen assay); assay type: cell-based, human; details: 24 h
# Experimental: as §2, §3
# [4] = biological target: T2, Human A1 adenosine receptor (Homo sapiens, UniProt P30542); details: read-out: affinity for A1 receptor (Ki); cited from earlier work
# T2 sequence (P30542 1-326): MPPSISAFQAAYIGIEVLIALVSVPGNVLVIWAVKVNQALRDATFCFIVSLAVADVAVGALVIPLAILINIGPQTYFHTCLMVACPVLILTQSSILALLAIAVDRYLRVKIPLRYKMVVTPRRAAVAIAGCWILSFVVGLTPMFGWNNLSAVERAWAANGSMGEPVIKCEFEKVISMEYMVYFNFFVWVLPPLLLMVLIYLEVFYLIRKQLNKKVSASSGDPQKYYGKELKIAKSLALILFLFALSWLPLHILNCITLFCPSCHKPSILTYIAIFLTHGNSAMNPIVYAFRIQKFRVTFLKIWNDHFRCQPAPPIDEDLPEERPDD
# HHSCs [5] = assay: Measurement of cAMP accumulation in HHSCs; assay type: cell-based, human; details: for effect on forskolin-induced cellular cAMP accumulation: agonist 1 μM, forskolin 10 μM; for effect of agonist on cellular cAMP accumulation: with rolipram 50 μM, 15 min, CGS-21680 (=10 μM)
# Experimental: as §1
# Cells were harvested using 0.0025% trypsin and 2 mM EDTA in PBS, washed and resuspended in phenol-free DMEM to a concentration of 1×10^6 cells/ml, and then incubated with 1 U/ml of ADA for 30 min at room temperature. Cells were then treated with AdoR agonists, antagonists, and forskolin in the presence of 50 μM of the phosphodiesterase IV inhibitor, rolipram. After incubating for 15 min at 37° C., cells were lysed and cAMP concentrations were determined using cAMP-Screen Direct™ System (Applied Biosystems) according to the manufacturer's instructions.
# [6] = biological target: T3, Human A3 adenosine receptor (Homo sapiens, UniProt P0DMS8); details: read-out: affinity for A3 receptor (Ki); cited from earlier work
# T3 construct: expressed in transfected cells; host or cells: CHO (CHO-A3), membrane preparation
# T3 sequence (P0DMS8 1-318): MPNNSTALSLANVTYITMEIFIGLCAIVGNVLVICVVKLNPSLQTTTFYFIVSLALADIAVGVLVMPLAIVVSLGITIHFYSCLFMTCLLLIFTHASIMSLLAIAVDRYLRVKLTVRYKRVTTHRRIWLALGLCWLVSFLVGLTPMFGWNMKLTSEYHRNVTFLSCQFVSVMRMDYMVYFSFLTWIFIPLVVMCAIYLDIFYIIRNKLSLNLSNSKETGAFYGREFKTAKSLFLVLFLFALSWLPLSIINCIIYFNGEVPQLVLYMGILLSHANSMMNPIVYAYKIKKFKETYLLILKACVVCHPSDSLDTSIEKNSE
# ADA^−/− mice = assay: Plasma AST levels in ADA-deficient mice; assay type: in vivo; details: 1 mg/kg per injection i.p. morning and evening for 17 days, vs vehicle
# Experimental: as §3
# Adenosine deaminase (ADA)-deficient mice were generated and genotyped as described in Blackburn et al. (1998), J Biol Chem, 273(9):5093-5100. Mice homozygous for the null Ada allele were designated ADA-deficient (ADA^−/−), while mice heterozygous for the null Ada allele were designated as ADA control mice (ADA^+). All mice were on a mixed 129sv/C57BL/6J background and all phenotypic comparisons were performed amongst littermates. Animal care was in accordance with institutional and NIH guidelines. Mice were housed in ventilated cages equipped with microisolator lids and maintained under strict containment protocols. No evidence of bacterial, parasitic, or fungal infection was found, and serologies on cage littermates were negative for 12 of the most common murine viruses. […]
# HHSCs [7] = assay: mRNA levels of α-smooth muscle actin and α-1 pro-collagen in HHSCs (real-time RT-PCR); assay type: cell-based, human; details: NECA 10 μM, 1 h
# Experimental: HHSCs were seeded into 12-well tissue culture plates at a density of 1×10^5 cells/well in stellate cell growth medium and allowed to adhere overnight and reach ˜90% confluency. Cells were washed twice in HEPES buffered saline, and cultured in DMEM containing various agonists or antagonists of AdoRs for 1 or 24 h. Total RNA was extracted from HHSCs using the Stratagene Absolutely RNA™ RT-PCR Miniprep Kit followed by DNase treatment to eliminate potential genomic DNA contamination. Real-time RT-RCR for adenosine receptors was performed as previously described in Zhong et al. (2004) Am J Respir Cell Mol Biol; 30(1):118-125. The specific primers for α-smooth muscle actin used were: while the primers for α-1 pro-collagen were: and each of these primers were designed using Primer Express 2.0 (Applied Biosystems) following the recommended guidelines based on sequences from Genbank. At the end of the PCR cycle, a dissociation curve was generated to ensure the amplification of a single product, and the threshold cycle time (Ct value) for each gene was determined. Relative mRNA levels were calculated based on the Ct values, normalized to β-actin in the same sample, and presented as percentages of β-actin mRNA. Measurement of cAMP Accumulation
structure (smiles),measurement,setting,value
"CCCn1c(=O)[nH]c2nc(-c3cnn(Cc4noc(-c5ccc(Cl)cc5)n4)c3)[nH]c2c1=O [compound (1), 8-(1-{[5-(4-chlorophenyl)(1,2,4-oxadiazol-3-yl)]methyl}pyrazol-4-yl)-1-propyl-1,3,7-trihydropurine-2,6-dione]",Ki,[1],> 5 µM
same,reduction of NECA-increased IL-6 release,HHSCs [2]; compound 1 μM together with NECA 10 μM,90.7±0.1%
same,effect on NECA-induced collagen production,HHSCs [3]; NECA 10 μM,abolished
same,Ki,[4],> 5 µM
same,effect on NECA-induced cellular cAMP accumulation,HHSCs [5]; antagonist 1 μM,significantly attenuated
same,Ki,[6],> 5 µM
"CCCn1c(=O)c2[nH]c(-c3cnn(Cc4cccc(C(F)(F)F)c4)c3)nc2n(CC)c1=O [compound (2), 3-ethyl-1-propyl-8-(1-{[3-(trifluoromethyl)phenyl]methyl}pyrazol-4-yl)-1,3,7-trihydropurine-2,6-dione]",plasma AST levels,ADA^−/− mice,significant reduction
CNC(=O)[C@H]1O[C@@H](n2cnc3c(NCc4cccc(I)c4)ncnc32)[C@H](O)[C@@H]1O [IB-MECA],effect on forskolin-induced cellular cAMP accumulation,HHSCs [5],Lack of effect; also recorded: failed to inhibit
"CCNC(=O)[C@H]1O[C@@H](n2cnc3c(N)ncnc32)[C@H](O)[C@@H]1O [NECA, 5′-(N-ethylcarboxamido)-adenosine]",expression of α-1 pro-collagen mRNA,HHSCs [7],significantly increased
same,expression of α-smooth muscle actin mRNA,HHSCs [7],significantly increased
same,maximal increase of IL-6 release over the basal level,HHSCs [2],11.9±3.1 fold
same,effect on IL-6 release,HHSCs [2]; 24 h,increased IL-6 release in a concentration-dependent manner
same,increase of IL-6 release compared to vehicle-treated cells,"HHSCs [2]; NECA 100 μM, 24 h",11.9±3.1 fold
same,release of soluble collagen,HHSCs [3],increased; also recorded: significant increase
same,effect of agonist on cellular cAMP accumulation,HHSCs [5],increased cellular cAMP accumulation in a concentration-dependent manner
"OC[C@H]1O[C@@H](n2cnc3c(NC4CCCC4)ncnc32)[C@H](O)[C@@H]1O [CPA, N6-cyclopentyladenosine]",effect on forskolin-induced cellular cAMP accumulation,HHSCs [5],Lack of effect; also recorded: failed to inhibit
Nc1ncnc2c1ncn2[C@@H]1O[C@H](CO)[C@@H](O)[C@H]1O [adenosine],maximal increase of IL-6 release over the basal level,HHSCs [2],11.9±3.1 fold
same,effect on IL-6 release,HHSCs [2]; 24 h,increased IL-6 release in a concentration-dependent manner
CCNC(=O)[C@H]1O[C@@H](n2cnc3c(N)nc(NCCc4ccc(CCC(=O)O)cc4)nc32)[C@H](O)[C@@H]1O [CGS-21680],effect of agonist on cellular cAMP accumulation,HHSCs [5],did not cause a significant increase
